Like-named read-outs stand apart in the source and are kept apart here.
Assays:
[1] = system: vaccinia virus (strain Copenhagen)
[2] = system: Vero cells
[3] = in vitro; conditions: African green monkey
[4] = in vitro; conditions: human
[5] = system: vaccinia virus (strain Copenhagen); test: microbe, parasite or virus in culture; conditions: Orthopoxvirus vaccinia, Vero, 96 h
[6] = system: Marburg pseudovirus (GP MARV); test: microbe, parasite or virus in culture; conditions: 24 h
[7] = system: Marburg pseudovirus (GP MARV)
[8] = system: HEK293FT cells
[9] = system: VSV-GP-EboV; conditions: cited from earlier work
[10] = system: VV; conditions: cited from earlier work
[11] = system: H1N1; conditions: cited from earlier work

With CC1(C)[C@H]2CC[C@]1(C)/C(=N/NC(=S)Nc1ccccc1)C2 [2′a, (E)-N-phenyl-2-((1S,4S)-1,7,7-trimethylbicyclo[2.2.1]heptan-2-ylidene)hydrazinecarbothioamide] the IC50 [1] was “lower micromolar range”, the “SI (CC50/IC50)” value [1] was 4 and the CC50 [2] was “quite toxic”. The CC50 [3] was 16 ± 2.8 µM, the CC50 [4] was 280 ± 38.6 µM and the IC50 [5] was 4.3 ± 1.8 µM. It also gave an IC50 [6] of 5.9 ± 2.1 µM.

In the case of CNC(=S)N/N=C1\C[C@@H]2CC[C@@]1(C)C2(C)C [2′d, (E)-N-methyl-2-((1S,4S)-1,7,7-trimethylbicyclo[2.2.1]heptan-2-ylidene)hydrazinecarbothioamide], the IC50 [1] is reported as “low”, the “SI (CC50/IC50)” value [1] is reported as 5 and the CC50 [2] is reported as “least cytotoxicity”. The “SI (CC50/IC50)” value [7] was 2, the CC50 [3] was 130 ± 14.2 µM and the CC50 [4] was 66.9 ± 18.2 µM. It also gave an IC50 [5] of 35 ± 5.8 µM and an IC50 [6] of 29.2 ± 4.2 µM.

In the case of CC1(C)[C@@H]2CC[C@@]1(C)/C(=N/NC(=S)Nc1ccccc1)C2 [Compound 2a, (E)-N-phenyl-2-((1R,4R)-1,7,7-trimethylbicyclo[2.2.1]heptan-2-ylidene)hydrazinecarbothioamide], the IC50 [1] is reported as “lower micromolar range”, the “SI (CC50/IC50)” value [1] is reported as 4 and the CC50 [2] is reported as “quite toxic”. For the same molecule, the “SI (CC50/IC50)” value [7] was 2, the CC50 [3] was 24 ± 3.4 µM and the CC50 [4] was 700 ± 43.1 µM. It also gave an IC50 [5] of 6.7 ± 0.9 µM and an IC50 [6] of 398 ± 33.2 µM.

With C=CCNC(=S)N/N=C1\C[C@H]2CC[C@]1(C)C2(C)C [Compound 2b, (E)-N-allyl-2-((1R,4R)-1,7,7-trimethylbicyclo[2.2.1]heptan-2-ylidene)hydrazinecarbothioamide] the IC50 [1] was “low”, the CC50 [2] was “least cytotoxicity” and the “SI (CC50/IC50)” value [7] was 5. For the same molecule, the CC50 [3] was 200 ± 23.8 µM, the CC50 [4] was 128 ± 37.8 µM and the IC50 [6] was 24.5 ± 3.8 µM.

In the case of CNC(=S)N/N=C1\C[C@H]2CC[C@]1(C)C2(C)C [Compound 2d, (E)-N-methyl-2-((1R,4R)-1,7,7-trimethylbicyclo[2.2.1]heptan-2-ylidene)hydrazinecarbothioamide], the IC50 [1] is reported as “low”, the “SI (CC50/IC50)” value [1] is reported as 2 and the CC50 [2] is reported as “least cytotoxicity”. The CC50 [3] was 150 ± 17.9 µM, the CC50 [4] was 62.8 ± 17.1 µM and the IC50 [5] was 97 ± 19.8 µM. It also gave an IC50 [6] of 28 ± 4.2 µM.

In the case of CC12CCC(CC1=NN=C1SCC(=O)N1c1ccccc1)C2(C)C [Compound 3a, ((Z)-3-phenyl-2-((E)-((1R,4R)-1,7,7-trimethylbicyclo[2.2.1]heptan-2-ylidene)hydrazono)thiazolidin-4-one], the “SI (CC50/IC50)” value [7] is reported as 5, the CC50 [8] is reported as “least toxicity” and the CC50 [3] is reported as 290 ± 39.1 µM. It also gave a CC50 [4] of 1260 ± 52.7 µM and an IC50 [6] of 237 ± 5.9 µM.

For C=CCN1C(=O)C(C)(C)S/C1=N/N=C1/C[C@H]2CC[C@]1(C)C2(C)C [Compound 4b, (Z)-3-allyl-5,5-dimethyl-2-((E)-((1R,4R)-1,7,7-trimethylbicyclo[2.2.1]heptan-2-ylidene)hydrazono)thiazolidin-4-one], the “SI (CC50/IC50)” value [7] was 4, the CC50 [8] was “least toxicity” and the CC50 [4] was 959.5 ± 6.8 µM. For the same molecule, the IC50 [6] was 255 ± 45 µM.

In the case of CN1C(=O)C(C)(C)S/C1=N/N=C1/C[C@H]2CC[C@]1(C)C2(C)C [Compound 4d, (Z)-3,5,5-trimethyl-2-((E)-((1R,4R)-1,7,7-trimethylbicyclo[2.2.1]heptan-2-ylidene)hydrazono)thiazolidin-4-one], the IC50 [1] is reported as “highest activity”, the “SI (CC50/IC50)” value [1] is reported as 24 and the CC50 [2] is reported as “low toxicity”. For the same molecule, the “SI (CC50/IC50)” value [7] was 13, the CC50 [3] was 310 ± 38.7 µM and the CC50 [4] was 514 ± 34.1 µM. It also gave an IC50 [5] of 12.7 ± 1.4 µM and an IC50 [6] of 39 ± 3.3 µM.

For CC1(C)[C@@H]2CC[C@@]1(C)/C(=N/N=c1/scc(-c3ccc(Cl)cc3)n1-c1ccccc1)C2 [Compound 5a, (E)-4-(4-chlorophenyl)-3-phenyl-2-((E)-((1R,4R)-1,7,7-trimethylbicyclo[2.2.1]heptan-2-ylidene)hydrazono)-2,3-dihydrothiazole], the “SI (CC50/IC50)” value [7] was 8, the CC50 [8] was “least toxicity” and the CC50 [3] was 229 ± 24.7 µM. It also gave a CC50 [4] of 872 ± 52.8 µM and an IC50 [6] of 103 ± 6.9 µM.

In the case of Cn1c(-c2ccc(Cl)cc2)cs/c1=N/N=C1\C[C@H]2CC[C@]1(C)C2(C)C [Compound 5d, (E)-4-(4-chlorophenyl)-3-methyl-2-((E)-((1R,4R)-1,7,7-trimethylbicyclo[2.2.1]heptan-2-ylidene)hydrazono)-2,3-dihydrothiazole], the CC50 [2] is reported as “least toxic”, the “SI (CC50/IC50)” value [7] is reported as 10 and the CC50 [3] is reported as 144 ± 18.7 µM. It also gave a CC50 [4] of 107 ± 5.3 µM, an IC50 [5] of 2.6 ± 0.2 µM and an IC50 [6] of 10.7 ± 2.7 µM.

For Cn1c(-c2ccccc2)cs/c1=N/N=C1\C[C@H]2CC[C@]1(C)C2(C)C [Compound 8d, (E)-3-methyl-4-phenyl-2-((E)-((1R,4R)-1,7,7-trimethylbicyclo[2.2.1]heptan-2-ylidene)hydrazono)-2,3-dihydrothiazole], the “SI (CC50/IC50)” value [1] was 9, the “SI (CC50/IC50)” value [7] was <2 and the CC50 [3] was 14 ± 2.4 µM. The CC50 [4] was < 44.2 µM, the IC50 [5] was 1.5 ± 0.2 µM and the IC50 [6] was 26.5 ± 5.9 µM.

In the case of CCN1CCN(CCC(=O)N[C@@H]2C[C@H]3CC[C@]2(C)C3(C)C)CC1 [IIIa], the IC50 [9] is given as 0.6 µM and the SI [9] is given as 908.

For CC1(C)[C@@H]2CC[C@@]1(C)[C@H](NC(=O)CN1CCOCC1)C2 [IIIb], the IC50 [9] is listed as 5.7 µM, the SI [9] is listed as 147 and the IC50 [10] is listed as 12.5 µM. The SI [10] was 40.

In the case of CC1(C)[C@H]2CC[C@]1(C)[C@H](OC(=O)CN1CCOCC1)C2 [IIa], the IC50 [9] is given as 24.9 µM, the SI [9] is given as 13 and the IC50 [10] is given as 17.9 µM. For the same molecule, the SI [10] was 56, the IC50 [11] was 7.1 µM and the SI [11] was 82.

For CN1CCN(CC(=O)O[C@@H]2C[C@@H]3CC[C@@]2(C)C3(C)C)CC1 [IIb], the IC50 [9] is listed as 6.8 µM, the SI [9] is listed as 46 and the IC50 [11] is listed as 4.4 µM. For the same molecule, the SI [11] was 23.

In the case of CC1(C)[C@@H]2CC[C@@]1(CS(=O)(=O)N1CCOCC1)C(=O)C2 [IVa], the IC50 [9] is given as 0.9 µM and the SI [9] is given as 921.

For CC1(C)[C@@H]2CC[C@@]1(CS(=O)(=O)n1cncn1)C(=O)C2 [IVb], the IC50 [9] is listed as 1 µM and the SI [9] is listed as 1764.

In the case of CC1CCN(CCC(=O)O[C@@H]2C[C@@H]3CC[C@@]2(C)C3(C)C)CC1 [Ia], the IC50 [9] is given as 0.3 µM and the SI [9] is given as 956.

In the case of CC1(C)[C@H]2CC[C@]1(C)[C@H](OC(=O)CCN1CCOCC1)C2 [Ib], the IC50 [10] is listed as 3.5 µM, the SI [10] is listed as 48 and the IC50 [11] is listed as 12.2 µM. The SI [11] was 45.

For CN1CCN(CCC(=O)O[C@@H]2C[C@@H]3CC[C@@]2(C)C3(C)C)CC1 [Ic], the IC50 [9] is listed as 0.3 µM, the SI [9] is listed as 870 and the IC50 [11] is listed as 1.9 µM. For the same molecule, the SI [11] was 215.

For CC1(C)[C@@H]2CC[C@@]1(C)/C(=N/Nc1nc(-c3ccc(Cl)cc3)cs1)C2 [Va], the IC50 [10] is given as 2.7 µM and the SI [10] is given as 24.

In the case of CC1(C)[C@@H]2CC[C@@]1(C)/C(=N/Nc1nc(-c3ccc(Br)cc3)cs1)C2 [Vb], the IC50 [10] is given as 2.4 µM and the SI [10] is given as 32.

For COc1ccc(-c2csc(N/N=C3\C[C@H]4CC[C@]3(C)C4(C)C)n2)cc1 [Vc], the IC50 [10] is given as 3.7 µM and the SI [10] is given as 26.

— PMC9331314, “Synthesis and Antiviral Properties of Camphor-Derived Iminothiazolidine-4-Ones and 2,3-Dihydrothiazoles” (Molecules, 2022)
